The results in this text go back to PubChem BioAssay (NCI).

The structures appear in SMILES notation.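 These data come from cells grown in 96-well plates and exposed to compound for 48 hours at five concentrations. GI50 is the concentration that inhibits growth by half. TGI marks complete inhibition of growth.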

Test systems include A498 renal; NCI-H460 lung; LOX IMVI melanoma; TK-10 renal; UACC-62 melanoma; 786-0 renal; SK-MEL-5 melanoma; K-562 leukemia; IGROV1 ovarian; HCC-2998 colon.
What all share (test): NCI-60 cell line screen, 48 h

For the molecule `COc1cccc2c1C(=N)c1c(O)c3c(c(O)c1C2=O)C[C@@](O)(C(C)=O)C[C@@H]3O[C@H]1C[C@H](N)[C@H](O)[C@H](C)O1`, the GI50 in the experiment with A498 renal was 1.5 µM; with NCI-H460 lung, 0.0472 µM; with LOX IMVI melanoma, 0.178 µM; in the experiment on UACC-62 melanoma, 0.248 µM; with 786-0 renal it was 0.254 µM; in the experiment with SK-MEL-5 melanoma, 0.523 µM. Further, the results for the GI50 in the experiment with K-562 leukemia, in the experiment with IGROV1 ovarian and with HCC-2998 colon were 0.322 µM, 0.645 µM and 0.474 µM, respectively. Besides, the TGI with A498 renal amounted to 5.86 µM; in the experiment with NCI-H460 lung, 0.833 µM; in the experiment with LOX IMVI melanoma, 1.49 µM; in the experiment on TK-10 renal, 3.19 µM; in the experiment with UACC-62 melanoma, 1.79 µM; with 786-0 renal it was 4.28 µM. The TGI in the experiment with SK-MEL-5 melanoma came to 2.17 µM; in the experiment with K-562 leukemia, 10.9 µM; in the experiment with IGROV1 ovarian it was 6.25 µM; in the experiment with HCC-2998 colon it was 2.51 µM.

`COc1cc(NCC(C#N)C#N)ccc1N=Nc1ccc(Cl)cc1`: the TGI in the experiment on A498 renal was > 100 µM; in the experiment with NCI-H460 lung, 52.9 µM; with LOX IMVI melanoma, 36.1 µM; in the experiment with TK-10 renal, 73 µM; with UACC-62 melanoma, 23.8 µM; with 786-0 renal, 48.8 µM. The TGI with SK-MEL-5 melanoma came to 45.9 µM; in the experiment on K-562 leukemia, 50.5 µM; in the experiment on IGROV1 ovarian, 71.7 µM; with HCC-2998 colon, 35.1 µM.

Turning to `COC(=O)c1ccc2[nH]c(O)c(C(=Nc3ccc(N(C)C(=O)CN4CCN(C)CC4)cc3)c3ccc4c(c3)OCO4)c2c1`, the GI50 with A498 renal was 0.703 µM; in the experiment on NCI-H460 lung, 0.902 µM; in the experiment on LOX IMVI melanoma, 0.415 µM; in the experiment with TK-10 renal, 1.36 µM; with UACC-62 melanoma it was 2.1 µM; with 786-0 renal it was 0.692 µM. Further, the GI50 in the experiment on SK-MEL-5 melanoma is 0.878 µM; in the experiment on K-562 leukemia it was 0.056 µM; in the experiment with IGROV1 ovarian it was 0.176 µM; in the experiment on HCC-2998 colon, 1 µM. For the same molecule, the TGI was determined as 2.18 µM in the experiment on A498 renal; 2.65 µM with NCI-H460 lung; 1.9 µM with LOX IMVI melanoma; 3.14 µM with TK-10 renal; 6.86 µM with UACC-62 melanoma; 2.14 µM with 786-0 renal. Also, the TGI came to 2.17 µM in the experiment on SK-MEL-5 melanoma, 6.16 µM in the experiment with K-562 leukemia, 1.52 µM in the experiment on IGROV1 ovarian and 2.69 µM in the experiment with HCC-2998 colon.

`C=C1c2c(C)nn(-c3ccc(C#CCOC4OC(CO)C(O)C(O)C4O)cc3)c2N(C)C23C[C@H]1C1(C)c4c(C)nn(-c5ccc(C#CCOC6OC(CO)C(O)C(O)C6O)cc5)c4N(C)C(C)(C[C@H]12)C3` (some centres undefined): the GI50 in the experiment on A498 renal was 1.5 µM; in the experiment with NCI-H460 lung, 1.69 µM; in the experiment with LOX IMVI melanoma, 1.37 µM; with TK-10 renal it was 2.01 µM; with UACC-62 melanoma it was 1.22 µM; with 786-0 renal it was 2.66 µM. Further, the GI50 in the experiment with SK-MEL-5 melanoma was 1.38 µM; with K-562 leukemia, 1.89 µM; with IGROV1 ovarian, 1.56 µM; in the experiment with HCC-2998 colon, 1.57 µM. Moreover, the TGI with A498 renal came out at 3.18 µM; with NCI-H460 lung, 3.85 µM; in the experiment with LOX IMVI melanoma, 2.79 µM; with TK-10 renal, 4.04 µM; in the experiment with UACC-62 melanoma, 2.86 µM; with 786-0 renal, 7.78 µM. In addition, the TGI with SK-MEL-5 melanoma came out at 2.71 µM; in the experiment with K-562 leukemia it was 6.75 µM; with IGROV1 ovarian it was 3.95 µM; with HCC-2998 colon, 3.15 µM.

As to `O=C(Nc1ccc(C(F)(F)F)cc1[N+](=O)[O-])C(=O)C1NC(=S)NC1=O` (centres undefined), the TGI with A498 renal, with NCI-H460 lung, in the experiment on LOX IMVI melanoma, in the experiment on TK-10 renal, in the experiment with UACC-62 melanoma and in the experiment with 786-0 renal was > 100 µM each time. Further, the TGI with SK-MEL-5 melanoma, with K-562 leukemia, in the experiment on IGROV1 ovarian and in the experiment on HCC-2998 colon was > 100 µM each time.

In the case of `Nc1ncnc2c1ncn2C1C=C(CO)C(O)C1O` (centres undefined), the TGI in the experiment on A498 renal was 43.5 µM; in the experiment on NCI-H460 lung, 34.8 µM; in the experiment with LOX IMVI melanoma, 45.4 µM; in the experiment on TK-10 renal it was > 84.9 µM; in the experiment with UACC-62 melanoma it was > 57.5 µM; in the experiment with 786-0 renal, > 100 µM. Besides, the TGI with SK-MEL-5 melanoma is > 100 µM; in the experiment on K-562 leukemia, 39.6 µM; in the experiment with IGROV1 ovarian it was > 54.3 µM; with HCC-2998 colon, > 77.3 µM.

For the molecule `O=S(=O)(C1=CC(S(=O)(=O)c2ccccc2)CN(Cc2ccccc2)C1c1cccc2ccccc12)c1ccccc1` (centres undefined), the TGI with A498 renal, with NCI-H460 lung, in the experiment with LOX IMVI melanoma, in the experiment on TK-10 renal, with UACC-62 melanoma and in the experiment on 786-0 renal was > 69 µM throughout. For the same molecule, the TGI in the experiment with SK-MEL-5 melanoma, in the experiment on K-562 leukemia, with IGROV1 ovarian and with HCC-2998 colon was > 69 µM each time.

In the case of `CCN1CCCc2cc3c(C(F)(F)F)cc(=O)oc3cc21`, the TGI in the experiment on A498 renal, with NCI-H460 lung, in the experiment with LOX IMVI melanoma, in the experiment with TK-10 renal, in the experiment with UACC-62 melanoma and in the experiment with 786-0 renal was > 100 µM throughout. Moreover, the TGI was 72.3 µM with SK-MEL-5 melanoma, > 100 µM in the experiment on K-562 leukemia, > 100 µM in the experiment with IGROV1 ovarian and > 100 µM in the experiment with HCC-2998 colon.

As for `CCCCCCCCn1ccc2cc(NC(=O)Cn3cc(CN4CCCCCC4)nn3)ccc21`, the GI50 in the experiment with A498 renal was 1.76 µM; in the experiment on NCI-H460 lung, 1.85 µM; with LOX IMVI melanoma, 1.7 µM; in the experiment with TK-10 renal, 1.63 µM; with UACC-62 melanoma it was 1.93 µM; in the experiment with 786-0 renal, 1.68 µM. For the same molecule, the GI50 with SK-MEL-5 melanoma was 1.74 µM; in the experiment on K-562 leukemia, 1.67 µM; in the experiment on IGROV1 ovarian, 1.72 µM; with HCC-2998 colon, 1.78 µM. The TGI amounted to 3.2 µM in the experiment with A498 renal; 3.45 µM in the experiment on NCI-H460 lung; 3.17 µM in the experiment with LOX IMVI melanoma; 3.06 µM with TK-10 renal; 3.45 µM in the experiment on UACC-62 melanoma; 3.07 µM with 786-0 renal. In addition, the TGI in the experiment with SK-MEL-5 melanoma was determined as 3.13 µM; in the experiment on K-562 leukemia, 3.6 µM; with IGROV1 ovarian, 3.33 µM; with HCC-2998 colon it was 3.35 µM.
